Numbers after ± are expanded uncertainties.
Experiments:
[1] = mn = molality of the nth substance listed, in mol/kg; details: 298.15 K, 101.3 kPa, Liquid, Vibrating tube method
[2] = wn = mass fraction of the nth substance listed; details: 298.15 K, 101.3 kPa, Liquid, Vibrating tube method

OCC1CO1 (stereo not drawn) [2,3-epoxy-1-propanol] + O
mass density ([1]; m1 = 0.4019): 1001.85 ± 0.44 kg/m3

OC[C@@H]1CO1 [R-(+)-glycidol] + O
mass density ([1]; m1 = 0.402): 1002.68 ± 0.27 kg/m3

OC[C@H]1CO1 [S-(-)-glycidol] + O
mass density ([1]; m1 = 0.4554): 1002.79 ± 0.27 kg/m3

CN(C)C=O [dimethylformamide] + O
mass density ([2]; w1 = 0.05): 996.463 ± 0.11 kg/m3 | mass density ([2]; w1 = 0.1001): 996.232 ± 0.11 kg/m3 | mass density ([2]; w1 = 0.15): 996.24 ± 0.11 kg/m3 | mass density ([2]; w1 = 0.2001): 996.402 ± 0.11 kg/m3 | mass density ([2]; w1 = 0.2502): 996.649 ± 0.11 kg/m3

From the NIST ThermoML archive (doi:10.1016/j.jct.2015.03.012)
